The values that follow come from article PMC5882164, “A novel calcimimetic agent, evocalcet (MT-4580/KHK7580), suppresses the parathyroid cell function with little effect on the gastrointestinal tract or CYP isozymes in vivo and in vitro” (PLoS ONE, 2018).

One data set has as its system emesis. Conditions: common marmoset, in vivo, 4 h. The protocol:
The study of effect of evocalcet on emesis in common marmoset was performed by referencing a previously reported method. The marmosets (n = 24) used for this study were housed in cages (460 × 600 × 655 mm) with environmental enrichments (wooden perches, swing, and balls) and acclimated for at least 4 weeks. The marmosets were fasted from evening on the day before administration. To confirm the reduction in the serum PTH levels, blood samples (about 300~400 μL, 1.2∼1.6% of total blood volume) were collected from the femoral or saphenous vein without an anesthesia before and at 1 and 4 h after the oral administration of evocalcet (1.5 or 5 μg/kg, n = 3 in each dose) or cinacalcet (300 or 500 μg/kg, n = 3 in each dose) suspended in 0.5% methyl cellulose solution using a metallic gastric zonde. The serum PTH level was measured using a Porcine Intact PTH ELISA kit (Immutopics, Inc., San Clemente, CA, USA). To evaluate the emetic effects in marmosets, evocalcet (50 or 150 μg/kg) or cinacalcet (1500 or 5000 μg/kg) was orally administered (n = 6/drug, dose down titration, n = 12 in total). The observation of emesis was conducted until 4 h after the administration.

The next data set concerns the target T1, human CaR (Homo sapiens, UniProt P41180).
T1 construct: expressed in transfected cells
T1 sequence (P41180 20-1078): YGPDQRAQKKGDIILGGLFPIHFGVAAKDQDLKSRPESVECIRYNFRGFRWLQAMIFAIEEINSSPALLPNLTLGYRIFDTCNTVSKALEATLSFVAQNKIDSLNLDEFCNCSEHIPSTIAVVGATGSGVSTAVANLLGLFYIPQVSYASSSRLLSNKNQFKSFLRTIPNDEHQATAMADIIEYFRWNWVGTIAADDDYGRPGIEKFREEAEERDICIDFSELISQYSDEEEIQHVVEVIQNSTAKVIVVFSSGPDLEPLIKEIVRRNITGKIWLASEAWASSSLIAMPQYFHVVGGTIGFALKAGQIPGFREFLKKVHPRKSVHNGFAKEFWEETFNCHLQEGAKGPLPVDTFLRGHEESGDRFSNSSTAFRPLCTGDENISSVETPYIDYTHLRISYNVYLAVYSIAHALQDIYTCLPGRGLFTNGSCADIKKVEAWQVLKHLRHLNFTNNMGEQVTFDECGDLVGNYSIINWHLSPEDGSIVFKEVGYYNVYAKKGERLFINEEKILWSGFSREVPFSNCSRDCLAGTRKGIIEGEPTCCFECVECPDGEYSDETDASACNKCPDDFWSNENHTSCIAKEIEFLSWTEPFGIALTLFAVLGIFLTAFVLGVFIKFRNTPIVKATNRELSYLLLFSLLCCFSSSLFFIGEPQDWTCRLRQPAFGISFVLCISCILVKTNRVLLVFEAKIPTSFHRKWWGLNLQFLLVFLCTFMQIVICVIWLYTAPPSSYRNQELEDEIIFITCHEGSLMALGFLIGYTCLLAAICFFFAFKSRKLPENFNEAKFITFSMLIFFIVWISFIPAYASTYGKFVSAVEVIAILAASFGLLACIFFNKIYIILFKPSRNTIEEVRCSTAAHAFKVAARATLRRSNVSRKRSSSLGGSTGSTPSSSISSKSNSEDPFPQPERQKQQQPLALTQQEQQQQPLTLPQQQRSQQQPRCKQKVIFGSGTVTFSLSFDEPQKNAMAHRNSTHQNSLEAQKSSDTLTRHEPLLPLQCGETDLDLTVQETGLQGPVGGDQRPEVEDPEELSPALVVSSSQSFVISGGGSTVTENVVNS
As to the kind of experiment: Agonistic activity studies with HEK293 cells stably expressing human CaR (cytoplasmic Ca2+ concentration). The class given is cell-based. The settings on record: hCaR-HEK293 cells. The protocol: HEK 293 cell is obtained from Summit Pharmaceuticals International Corporation (ATCC® Number: CRL-1573^TM). The HindIII-XhoI fragment of the human CaR cDNA was subcloned into the mammalian expression vector pcDNA3.1/Hygro (+) (Invitrogen) containing the hygromycin resistance gene as a selectable marker. This plasmid was transfected into HEK 293 cells by lipofection. The transfected cells were grown in DMEM containing 10% fetal bovine serum and hygromycin B ([…]) in 96 well plate. Hygromycin-resistant colonies were subcloned and assayed for hCaR mRNA by quantitative RT-PCR. The stably transfected cell line was then selected and used for agonistic activity studies.
Evocalcet was dissolved in dimethyl sulfoxide (DMSO) and diluted with HEPES buffer for the preparation of cells. Evocalcet solutions (3~30000 nM, 9-point concentrations) were added to a 96-well plate, and a suspension of HEK293 cells stably transfected with the human CaR was then seeded onto the plate. The ratio with the fluorescence intensity was determined continuously with a multi-label plate reader. To evaluate the agonistic activity pattern of evocalcet, calcium solutions in each concentration were added after the addition of evocalcet solutions to the plate.
The transient changes in the cytoplasmic calcium concentration (Δ[Ca^2+]i) induced by receptor activation were measured. (A) The effect of evocalcet on the Δ[Ca^2+]i value in hCaR-HEK293 cells. (B) The effect of evocalcet on the response rates elicited by increasing the extracellular calcium level in hCaR-HEK293 cells. The response rate was calculated using the following formula: Responserate(%)=Δ[Ca^2+]i/MaxΔ[Ca^2+]i×100 Δ[Ca^2+]i: Subtraction of basal [Ca^2+]i from maximum [Ca^2+]i observed after addition of evocalcet; Max Δ[Ca^2+]i: Δ[Ca^2+]i at the maximum Ca concentration (3 mmol/L).

Where a name gives a salt, the structure may show the parent alone.

As for `C[C@@H](NCCCc1cccc(C(F)(F)F)c1)c1cccc2ccccc12` [cinacalcet, Cinacalcet hydrochloride, reference compound], the Safety margin with emesis is on record as 3 < X < 10.
In the case of `C[C@@H](N[C@H]1CCN(c2ccc(CC(=O)O)cc2)C1)c1cccc2ccccc12` [evocalcet], the “Δ[Ca^2+]i” value at human CaR (evocalcet 3 nmol/L) was 1.94 nmol/L; at human CaR (evocalcet 10 nmol/L), 6.18 nmol/L; at human CaR (evocalcet 30 nmol/L) it was 17.71 nmol/L; on human CaR (evocalcet 100 nmol/L), 50.62 nmol/L; on human CaR (evocalcet 300 nmol/L) it was 71.35 nmol/L; at human CaR (evocalcet 1000 nmol/L), 70.70 nmol/L. The “Δ[Ca^2+]i” value is given as 75.59 nmol/L at human CaR (evocalcet 3000 nmol/L), 78.61 nmol/L on human CaR (evocalcet 10000 nmol/L) and 77.66 nmol/L on human CaR (evocalcet 30000 nmol/L). Moreover, the Response rate on human CaR (evocalcet 20 nmol/L, Ca concentration 0.25 mmol/L) is recorded as 0%; at human CaR (evocalcet 20 nmol/L, Ca concentration 0.3 mmol/L), 0%; on human CaR (evocalcet 20 nmol/L, Ca concentration 0.6 mmol/L) it was 0.26%; on human CaR (evocalcet 20 nmol/L, Ca concentration 0.9 mmol/L) it was 4.69%; on human CaR (evocalcet 20 nmol/L, Ca concentration 1.2 mmol/L), 16.07%; on human CaR (evocalcet 20 nmol/L, Ca concentration 1.5 mmol/L), 33.31%. For the same molecule, the Response rate is reported as 52.75% at human CaR (evocalcet 20 nmol/L, Ca concentration 1.8 mmol/L); 70.47% at human CaR (evocalcet 20 nmol/L, Ca concentration 2.1 mmol/L); 84.37% at human CaR (evocalcet 20 nmol/L, Ca concentration 2.4 mmol/L); 94.54% on human CaR (evocalcet 20 nmol/L, Ca concentration 2.7 mmol/L); 100% at human CaR (evocalcet 20 nmol/L, Ca concentration 3.0 mmol/L (maximum, reference)); 0% at human CaR (evocalcet 60 nmol/L, Ca concentration 0.25 mmol/L). The Response rate was 0% on human CaR (evocalcet 60 nmol/L, Ca concentration 0.3 mmol/L); 3.76% at human CaR (evocalcet 60 nmol/L, Ca concentration 0.6 mmol/L); 16.86% on human CaR (evocalcet 60 nmol/L, Ca concentration 0.9 mmol/L); 33.15% on human CaR (evocalcet 60 nmol/L, Ca concentration 1.2 mmol/L); 53.86% on human CaR (evocalcet 60 nmol/L, Ca concentration 1.5 mmol/L); 70.14% on human CaR (evocalcet 60 nmol/L, Ca concentration 1.8 mmol/L). Moreover, the Response rate is 81.77% at human CaR (evocalcet 60 nmol/L, Ca concentration 2.1 mmol/L); 88.98% at human CaR (evocalcet 60 nmol/L, Ca concentration 2.4 mmol/L); 92.99% on human CaR (evocalcet 60 nmol/L, Ca concentration 2.7 mmol/L); 100% at human CaR (evocalcet 60 nmol/L, Ca concentration 3.0 mmol/L (maximum, reference)). For the same molecule, the EC50 on human CaR (read-out: EC50 for [Ca^2+]i) was found to be 0.0927 µM.
